Assay results taken from patent US20100168228A1, “NOVEL CHEMOTHERAPEUTIC AGENTS AGAINST INFLAMMATION AND CANCER” (RELIANCE LIFE SCIENCES PVT. LTD., priority 2006, published 2010).

Columns and labels:
Type in all cases: cell-based, human
Jurkat cells = experiment: DNA fragmentation assay, Jurkat; conditions: 24 h
Protocol: DNA fragmentation Assay: After treatment with the compounds for 24 h, cells were harvested and washed in PBS. The cell pellet was incubated with lysis buffer (10 mM Tris-HCl pH 7.5, 1 mM EDTA, 1% SDS and 80 ug/ml proteinase K) at 37° C. overnight. After extraction with phenol/chloroform, the DNA was precipitated with 100% ethanol and then dissolved in Tris-EDTA buffer (pH 8.0) with RNase A at 37° C. The DNA estimation was performed by taking absorbance at 260/280 nm, and DNA was resolved in a 1.8% agarose gel, stained with ethidium bromide and visualized under a UV transilluminator.

p53 = p53 mRNA, semi-quantitative RT-PCR, Jurkat; conditions: various doses, 12 h
Protocol: RNA extraction: Total RNA was isolated using the standard TRIzol method (Gibco BRL). Briefly, 3×10^6 cells were treated with different concentrations of the compounds as indicated in the legends to Figures and after harvesting the cell pellet was resuspended in 1 ml of TRIzol with repeated pipetting. The homogenized sample was incubated at RT for 5 min to permit complete dissociation of the nucleoprotein complexes. […] of chloroform was added and the tubes were shaken vigorously for 15 sec by hand and then incubated at RT for 3 mins. The samples were then centrifuged at 10,000 RPM for 15 mins at 4° C. The aqueous phase was transferred to a fresh tube and 500 μl of Isopropyl alcohol was added, followed by incubation at RT for 10 mins. The samples were centrifuged at 10,000 RPM for 10 min at 4° C. and the RNA pellet was washed with 1 ml of 75% ethanol followed by centrifugation at maximum speed at 4° C. for 10 mins. Washing was repeated once more and after removing the supernatant, the RNA pellet was dried and dissolved in 20 ul of RNase free water (Promega). […]
Semi-quantitative reverse transcriptase (RT)-PCR: Changes in gene expression were verified by semi-quantitative RT-PCR using GAPDH as an internal normalization standard. 1 μg of total RNA (quantified by spectrophotometer) was used to reverse transcribe into cDNA. […]

NF-κB = NF-κB activation assay (Transfactor ELISA on nuclear extracts), Jurkat; conditions: pretreated 3 h
Protocol: Cell pellet was resuspended in lysis buffer (10 mM HEPES, pH 7.9, 1.5 mM MgCl2, 10 mM KCl, 1 mM PMSF, 1 mMDTT, 0.5% NP 40, 0.1 mM EGTA and 0.1 mM EDTA) and allowed to swell on ice for 15 min, followed by centrifugation at 3300×g for 20 min. The cell pellet was resuspended in a volume of lysis buffer equal to the cell pellet volume. The cell suspension was slowly drawn down into a syringe and ejected the content in a single stroke. Disrupted cells were incubated for 15 min on ice, and the disrupted cell suspension was centrifuged at 10,000×g for 20 min at 4° C. Nuclear pellet was resuspended in a volume of extraction buffer (20 mM HEPES; pH 7.9, 25% glycerol, 1.5 mM MgCl2, 420 mM NaCl, 0.1 mM EDTA, 0.1 mM EGTA, 1 mM PMSF and 1 mM DTT) and incubated on ice for 30 min. The nuclear suspension was centrifuged at 21,000×g for 15 min at 4° C. and the supernatant was collected as nuclear extract and stored at −70° C. Protein concentration was estimated using standard Bradford method.
To determine NF-κB activation, transcription profiling was done with the BD Mercury Transfactor kit obtained from BD Biosciences. This method provides rapid, high-throughput detection of specific transcription factors eg NFκB in the nuclear extract. Using an enzyme-linked immunosorbent assay (ELISA)-based format, the Transcription Factor kit detects the DNA binding by specific transcription factors.
The assay was performed by using wells coated with oligonucleotides having the consensus DNA binding sites for the specific transcription factors. 50 μg of the nuclear extract proteins were incubated in the wells precoated with their specific oligonucletides, and allowed the activated NFκB to bind to their consensus sequence. Bound transcription factor was detected by a specific Primary Antibody. A horseradish peroxidase conjugated Secondary Antibody was then used to detect the bound Primary Antibody. After addition of the substrate, the Absorbance was recorded at 655 nm. […]

ICAM1 (CD54) = experiment: ICAM 1 (CD 54) expression by flow cytometry
Protocol: FIG. 7: Effect of CAMVE on TNF or LPS induced ICAM1 (CD54) expression. Cells (5×10^5 cells/ml) were pretreated with different concentrations of CAMVE for 3 h and then treated with TNF (0.1 nM) or SA-LPS (100 ng/ml) for 12 h at 37° C. in a CO2 incubator. Treated cells were washed and stained with anti human CD54-FITC conjugated antibody to measure the amount of surface ICAM1 expression. The relative mean fluorescence intensity (MFI) was measured using FACS Calibur (BD). A. Representative histogram overlay showing TNF or LPS stimulated (1), basal (2), CAMVE pretreated (3). B. Values are given as MFI (mean±S.D.) in percent of basal expression, which was set to 100%.
Cells were pretreated with different concentrations of CAMVE for 3 h and then treated with 0.1 nM of TNF or 100 ng/ml SA-LPS for 12 h at 37° C. in a CO2 incubator. Extent of ICAM 1 expression was detected by staining the washed cells with FITC-labeled monoclonal antibody which binds to the cells expressing the CD 54 (ICAM 1). Unbound FITC-conjugated antibody is then washed from the cells and the cells were resuspended in 0.5 ml of 1% paraformaldehyde, and analyzed using Flow Cytometer (B D FACS Calibur). Cells CD54 structure is fluorescently stained, with the intensity of staining is directly proportional to the density of CD54.

In the case of COc1cc([C@@H]2Oc3c(OC)cc(/C=C/C(=O)O)cc3[C@H]2C(=O)O)ccc1O [compound 27, 5-[(E)-2-carboxyvinyl]-2β-(4-hydroxy-3-methoxyphenyl)-7-methoxy-2,3-dihydro-1-benzofuran-3α-carboxylic acid], the “DNA fragmentation (agarose gel)” value (Jurkat cells) is reported as “typical ladder pattern of internucleosomal fragmentation” and the “p53 mRNA level” value (p53) is reported as “only slight increase in p53 mRNA level”.

In the case of COC(=O)c1ccc(OC(=O)/C=C/c2ccc(O)c(O)c2)c(OC)c1 [compound 1, Methyl 4-{[(2E)-3-(3,4-dihydroxyphenyl)prop-2-enoyl]oxy}-3-methoxybenzoate], the “TNF induced NF-κB activation” value (NF-κB; 0.1 nM TNF 30 min) is reported as “inhibited this activation in a concentration dependent manner”, the “concentration of maximum inhibition of TNF induced NF-κB activation” value (NF-κB; 0.1 nM TNF 30 min) is reported as 15 µM and the “LPS induced NF-κB activation” value (NF-κB; 100 ng/ml SA-LPS 30 min) is reported as “blocked by CAMVE”. The “basal ICAM1 expression” value (ICAM1 (CD54); CAMVE alone) was “not altered by incubation with CAMVE alone” and the “TNF or LPS induced ICAM1 expression” value (ICAM1 (CD54); pretreated 3 h, TNF 0.1 nM or SA-LPS 100 ng/ml 12 h) was “blocked in CAMVE pretreated cells”.
